The molecules below were run against RheoSwitch® (CHO-K1_RS-1 cells, firefly Luciferase reporter) (Choristoneura fumiferana, UniProt O77240) (assay: in vitro gene switch assay (fLUC Luciferase expression, potency screen)). Conditions: read-out: fLUC assay EC50, 24 hours with compound, 25 μM to 2.5 pM, figure in parentheses after a value not defined.
Type: cell-based
Source text: Gene switch assays are disclosed, e.g., in U.S. Pat. Nos. 8,076,517; 7,456,315; 7,304,161; and 6,258,603.
CHO-K1 cells were stably transfected with a plasmid (RS-1, FIG. 1) coding for firefly Luciferase (fLUC) under the control of the RheoSwitch® resulting in the stable cell line CHO-K1_RS-1. A master cell bank was created containing approximately 100 vials at 5×10^6 cells per vial. One vial of CHO-K1_RS-1 was thawed and cultured for two weeks prior to each in vitro potency screening.
Twenty-four (24) hours prior to treatment with the control and test compounds the CHO-K1_RS-1 cells were seeded into white-opaque 384-well cell culture plates at 3,600 cells per well in 30 μl of culture medium. The cells were incubated in a humidified CO2 incubator at 37° C. until compound treatment.
Compounds were prepared at 25 mM in 100% dry DMSO and stored at room temperature in sealed 1 ml tubes prior to subsequent dilution and assay. On the day of cell treatment the tubes containing the control and test compounds were sorted and the ligands transferred to a 96-well polypropylene plate for subsequent dilution. The compounds were diluted in 100% dry DMSO in an 8-point, 10-fold dilution series ranging from 25 mM to 2.5 nM using the Biomek FX automated liquid handler.
The diluted compounds were then transferred to each well of 384-well polypropylene plate in quadruplicate resulting in a single 384-well plate with four replicates of each compound dilution in a different quadrant of the plate. Each well on the 384-well plate received 20 μl of diluted compound. The 384-well plates containing diluted compound and the plates containing cells in culture were loaded onto the Biomek FX and 30 nl of compound was delivered to each well containing cells using a 384-pin V&P Scientific Pin Tool. The resulting 1000-fold dilution (30 nl to 30 μl) generated a final dosing range of 25 μM to 2.5 pM in 0.1% DMSO. Two replicate plates were produced to supply a dedicated plate for the Luciferase expression assay and the APH cell viability assay.
The cells were incubated with the compound for 24 hours in a humidified CO2 incubator at 37° C. Following incubation, the cells were assayed for Luciferase expression (fLUC assay) using the Steady Glo assay from Promega. Cells were equilibrated to room temperature for 15 minutes prior to reagent addition. Thirty micro liters (30 μl) of assay reagent was added to each well of the 384-well plate using the Biomek FX. The reagent was incubated with the cells for 10-120 minutes prior to reading on a Molecular Devices Spectramax L luminometer. The assay reagents were prepared as per the manufacturer's instructions.
The Luciferase expression data was normalized to the baseline signal from cells treated with DMSO alone. The ratio of signal from treated cells to vehicle-treated cells was plotted and non-linear regress was performed using Graph Pad Prism software. EC50, (log)EC50 and Hill slope data was generated. Reporter gene expression, e.g., luciferase expression, serves as a proxy for the expression of a gene of interest. See, e.g., US 2009/0123441 and WO 2011/119773.

Sequence of RheoSwitch® (CHO-K1_RS-1 cells, firefly Luciferase reporter) (O77240 1-513): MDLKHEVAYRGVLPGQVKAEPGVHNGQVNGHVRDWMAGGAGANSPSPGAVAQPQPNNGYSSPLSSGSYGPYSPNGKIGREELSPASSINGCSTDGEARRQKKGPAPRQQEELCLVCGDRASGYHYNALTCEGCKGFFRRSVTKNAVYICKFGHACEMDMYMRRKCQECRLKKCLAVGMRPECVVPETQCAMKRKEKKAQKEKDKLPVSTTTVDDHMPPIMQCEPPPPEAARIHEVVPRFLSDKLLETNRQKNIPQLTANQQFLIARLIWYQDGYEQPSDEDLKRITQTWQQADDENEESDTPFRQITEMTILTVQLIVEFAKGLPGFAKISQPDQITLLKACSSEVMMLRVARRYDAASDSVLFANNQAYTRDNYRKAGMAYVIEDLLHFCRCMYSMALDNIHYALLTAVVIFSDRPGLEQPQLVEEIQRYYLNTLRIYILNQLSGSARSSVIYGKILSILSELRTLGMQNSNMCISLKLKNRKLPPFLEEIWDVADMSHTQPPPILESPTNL

| Compound | EC50 [nM] |
| --- | --- |
| CCC[C@@H](N(NC(=O)c1ccc(B(O)O)cc1C(C)C)C(=O)c1cc(C)cc(C)c1)C(C)(C)C [compound 10] | 1240 |
| Cc1cc(C)cc(C(=O)N(NC(=O)c2ccc(B(O)O)cc2C(C)C)C(C)(C)C)c1 [compound 11] | 14100 |
| Cc1cc(C)cc(C(=O)N(NC(=O)c2ccc(B(O)O)cc2F)C(C)(C)C)c1 [compound 12] | 271 |
| [2H]C([2H])([2H])c1cc(C(=O)N(NC(=O)c2ccc(B(O)O)cc2F)[C@H](CC)C(C)(C)C)cc(C([2H])([2H])[2H])c1 [compound 15] | 52.3 |
| CC[C@@H](N(NC(=O)c1ccc(B(O)O)cc1Cl)C(=O)c1cc(C)cc(C)c1)C(C)(C)C [compound 20] | 183 |
| Cc1cc(C)cc(C(=O)N(NC(=O)c2ccc(B(O)O)cc2Cl)C(C)(C)C)c1 [compound 21] | 1630 |
| CCC[C@@H](N(NC(=O)c1ccc(CCCB2OC(C)(C)C(C)(C)O2)c(OC(F)F)c1C)C(=O)c1cc(C)cc(C)c1)C(C)(C)C [compound 30] | 50.8 |
| CC[C@@H](N(NC(=O)c1cccc(OC)c1C)C(=O)c1cc(C)cc(B2OC(C)(C)C(C)(C)O2)c1)C(C)(C)C [compound 39] | 168 |
| CCc1c(OC)cccc1C(=O)NN(C(=O)c1ccc(B(O)O)cc1)C(C)(C)C [compound 40] | 5250 |
| Cc1cc(C)cc(C(=O)N(NC(=O)c2cccc(B3OC(C)(C)C(C)(C)O3)c2C)C(C)(C)C)c1 [compound 43] | 1420 |
| CC[C@@H](N(NC(=O)c1ccc2c(c1)B(O)OC2)C(=O)c1cc(C)cc(C)c1)C(C)(C)C [compound 52] | 287 |
| CC[C@H](N(NC(=O)c1ccc2c(c1)B(O)OC2)C(=O)c1cc(C)cc(C)c1)C(C)(C)C [compound 53] | 1000 |
| [2H]C([2H])([2H])c1cc(C(=O)N(NC(=O)c2ccc3c(c2F)B(O)OC3)[C@H](CC)C(C)(C)C)cc(C([2H])([2H])[2H])c1 [compound 60] | 123 |
| Cc1cc(C)cc(C(=O)N(CC(C)(C)C)NC(=O)c2ccc3c(c2C)OCCOB3O)c1 [compound 71] | 430 |
| Cc1cc(Cl)cc(C(=O)N(CC(C)(C)C)NC(=O)c2ccc3c(c2C)OCCOB3O)c1 [compound 72] | 443 |
| CCC(C)(C)N(NC(=O)c1ccc2c(c1C)OCCOB2O)C(=O)c1cc(C)cc(C)c1 [compound 76] | 358 |
| [2H]C([2H])([2H])c1cc(C(=O)N(NC(=O)c2ccc3c(c2C)OCCOB3O)C(C)(C)CC)cc(C([2H])([2H])[2H])c1 [compound 77] | 181 |
| CC[C@H](N(NC(=O)c1ccc2c(c1C)OCCOB2O)C(=O)c1cc(C)cc(C)c1)C(C)(C)C [compound 80] | 867 |

Same assay, conditions: read-out: fLUC assay EC50 Run 1, 24 hours with compound, Run 1

| Compound | EC50 [nM] |
| --- | --- |
| Cc1cc(C)cc(C(=O)N(NC(=O)c2ccc3c(c2C)OCCNB3O)C(C)(C)C)c1 [Cpd. No. 91, N′-(tert-butyl)-N′-(3,5-dimethylbenzoyl)-1-hydroxy-6-methyl-1,2,3,4-tetrahydrobenzo[f][1,4,5]oxazaborepine-7-carbohydrazide] | 132 |
| CC[C@@H](N(NC(=O)c1ccc2c(c1C)OCCNB2O)C(=O)c1cc(C)cc(C)c1)C(C)(C)C [Cpd. No. 92, (R)-N′-(3,5-dimethylbenzoyl)-N′-(2,2-dimethylpentan-3-yl)-1-hydroxy-6-methyl-1,2,3,4-tetrahydrobenzo[f][1,4,5]oxazaborepine-7-carbohydrazide] | 187 |
| CCC[C@@H](N(NC(=O)c1ccc([B-](F)(F)F)cc1F)C(=O)c1cc(C)cc(C)c1)C(C)(C)C [Cpd. No. 93, potassium (R)-(4-(2-(3,5-dimethylbenzoyl)-2-(2,2-dimethylhexan-3-yl)hydrazine-1-carbonyl)-3-fluorophenyl)trifluoroborate] | 66.8 |
| COCc1ccc(C(=O)NN(C(=O)c2cc(C)cc(C)c2)C(C)(C)C)c(F)c1B1OC(C)(C)C(C)(C)O1 [Cpd. No. 94, N′-(tert-butyl)-N′-(3,5-dimethylbenzoyl)-2-fluoro-4-(methoxymethyl)-3-(4,4,5,5-tetramethyl-1,3,2-dioxaborolan-2-yl)benzohydrazide] | 778 |

Same assay, conditions: read-out: fLUC assay EC50 Run 2, 24 hours with compound, Run 2

| Compound | EC50 [nM] |
| --- | --- |
| Cc1cc(C)cc(C(=O)N(NC(=O)c2ccc3c(c2C)OCCNB3O)C(C)(C)C)c1 [Cpd. No. 91, N′-(tert-butyl)-N′-(3,5-dimethylbenzoyl)-1-hydroxy-6-methyl-1,2,3,4-tetrahydrobenzo[f][1,4,5]oxazaborepine-7-carbohydrazide] | 86.9 |
| CC[C@@H](N(NC(=O)c1ccc2c(c1C)OCCNB2O)C(=O)c1cc(C)cc(C)c1)C(C)(C)C [Cpd. No. 92, (R)-N′-(3,5-dimethylbenzoyl)-N′-(2,2-dimethylpentan-3-yl)-1-hydroxy-6-methyl-1,2,3,4-tetrahydrobenzo[f][1,4,5]oxazaborepine-7-carbohydrazide] | 116 |
| CCC[C@@H](N(NC(=O)c1ccc([B-](F)(F)F)cc1F)C(=O)c1cc(C)cc(C)c1)C(C)(C)C [Cpd. No. 93, potassium (R)-(4-(2-(3,5-dimethylbenzoyl)-2-(2,2-dimethylhexan-3-yl)hydrazine-1-carbonyl)-3-fluorophenyl)trifluoroborate] | 122 |
| COCc1ccc(C(=O)NN(C(=O)c2cc(C)cc(C)c2)C(C)(C)C)c(F)c1B1OC(C)(C)C(C)(C)O1 [Cpd. No. 94, N′-(tert-butyl)-N′-(3,5-dimethylbenzoyl)-2-fluoro-4-(methoxymethyl)-3-(4,4,5,5-tetramethyl-1,3,2-dioxaborolan-2-yl)benzohydrazide] | 1650 |

Source: patent publication US9127024B2 (Intrexon Corporation, priority 2013, dated 2015)
